Measurements from ChEMBL document CHEMBL4507268 (2021).

Key:
Conditions in all cases: Compound concentration 1.0 uM
[1] = molecular target: Eukaryotic translation initiation factor 2-alpha kinase 1 (Homo sapiens) (UniProt Q9BQI3)
[2] = molecular target: MAP/microtubule affinity-regulating kinase 3 (Homo sapiens) (UniProt P27448)
[3] = molecular target: T1, Tyrosine-protein kinase JAK3 (Homo sapiens) (UniProt P52333)
T1 sequence (whole entry): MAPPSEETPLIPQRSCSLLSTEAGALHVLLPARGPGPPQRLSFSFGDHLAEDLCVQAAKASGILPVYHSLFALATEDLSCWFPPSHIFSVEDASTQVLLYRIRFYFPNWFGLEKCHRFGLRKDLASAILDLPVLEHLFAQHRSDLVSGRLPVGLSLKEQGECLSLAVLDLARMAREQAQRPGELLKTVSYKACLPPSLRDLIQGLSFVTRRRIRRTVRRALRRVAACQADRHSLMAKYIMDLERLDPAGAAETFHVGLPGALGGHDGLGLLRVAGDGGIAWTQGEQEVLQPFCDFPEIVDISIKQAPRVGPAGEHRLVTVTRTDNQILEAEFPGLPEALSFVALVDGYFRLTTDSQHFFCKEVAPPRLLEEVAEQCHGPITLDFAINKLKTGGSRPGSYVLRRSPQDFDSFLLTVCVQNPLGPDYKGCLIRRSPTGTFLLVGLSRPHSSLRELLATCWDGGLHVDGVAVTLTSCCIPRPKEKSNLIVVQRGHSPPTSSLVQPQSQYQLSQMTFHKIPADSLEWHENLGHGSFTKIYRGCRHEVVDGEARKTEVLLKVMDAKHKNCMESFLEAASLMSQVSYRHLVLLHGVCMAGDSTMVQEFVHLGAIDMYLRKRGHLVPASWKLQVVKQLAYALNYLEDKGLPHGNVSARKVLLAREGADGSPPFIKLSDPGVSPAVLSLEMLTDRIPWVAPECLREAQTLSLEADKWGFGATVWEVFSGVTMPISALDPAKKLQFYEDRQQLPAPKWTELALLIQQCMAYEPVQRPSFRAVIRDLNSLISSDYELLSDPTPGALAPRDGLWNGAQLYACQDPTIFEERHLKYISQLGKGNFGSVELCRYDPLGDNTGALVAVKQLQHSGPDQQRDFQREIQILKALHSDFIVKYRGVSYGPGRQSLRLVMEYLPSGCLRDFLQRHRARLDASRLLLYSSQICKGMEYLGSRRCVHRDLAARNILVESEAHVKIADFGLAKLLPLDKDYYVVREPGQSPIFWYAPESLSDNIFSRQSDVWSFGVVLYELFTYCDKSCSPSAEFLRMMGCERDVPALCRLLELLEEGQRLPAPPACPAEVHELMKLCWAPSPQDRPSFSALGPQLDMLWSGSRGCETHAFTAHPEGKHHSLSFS

[4] = molecular target: mTOR/FKBP12A/FKBP12B (Homo sapiens) (UniProt P62942+P68106+P42345)
[5] = molecular target: Macrophage-stimulating protein receptor (Homo sapiens) (UniProt Q04912)
[6] = molecular target: RAC-gamma serine/threonine-protein kinase (Homo sapiens) (UniProt Q9Y243)
[7] = molecular target: Glycogen synthase kinase-3 beta (Homo sapiens) (UniProt P49841)
[8] = molecular target: T2, Serine/threonine-protein kinase Nek3 (Homo sapiens) (UniProt P51956)
T2 sequence (whole entry): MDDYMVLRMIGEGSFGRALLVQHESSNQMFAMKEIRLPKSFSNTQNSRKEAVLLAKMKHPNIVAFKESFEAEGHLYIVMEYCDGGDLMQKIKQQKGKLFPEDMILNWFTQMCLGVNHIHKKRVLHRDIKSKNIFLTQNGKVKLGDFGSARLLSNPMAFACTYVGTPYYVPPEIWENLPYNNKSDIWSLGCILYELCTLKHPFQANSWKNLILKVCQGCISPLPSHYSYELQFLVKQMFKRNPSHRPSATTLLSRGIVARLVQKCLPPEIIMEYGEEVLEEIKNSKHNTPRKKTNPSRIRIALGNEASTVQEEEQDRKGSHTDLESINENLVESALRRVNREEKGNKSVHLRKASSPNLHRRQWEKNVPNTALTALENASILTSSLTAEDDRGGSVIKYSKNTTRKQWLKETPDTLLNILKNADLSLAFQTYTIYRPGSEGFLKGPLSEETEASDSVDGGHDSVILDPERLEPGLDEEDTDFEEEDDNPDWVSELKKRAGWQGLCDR

[9] = molecular target: Fibroblast growth factor receptor 1 (Homo sapiens) (UniProt P11362)
[10] = molecular target: T3, Serine/threonine-protein kinase ULK3 (Homo sapiens) (UniProt Q6PHR2)
T3 sequence (whole entry): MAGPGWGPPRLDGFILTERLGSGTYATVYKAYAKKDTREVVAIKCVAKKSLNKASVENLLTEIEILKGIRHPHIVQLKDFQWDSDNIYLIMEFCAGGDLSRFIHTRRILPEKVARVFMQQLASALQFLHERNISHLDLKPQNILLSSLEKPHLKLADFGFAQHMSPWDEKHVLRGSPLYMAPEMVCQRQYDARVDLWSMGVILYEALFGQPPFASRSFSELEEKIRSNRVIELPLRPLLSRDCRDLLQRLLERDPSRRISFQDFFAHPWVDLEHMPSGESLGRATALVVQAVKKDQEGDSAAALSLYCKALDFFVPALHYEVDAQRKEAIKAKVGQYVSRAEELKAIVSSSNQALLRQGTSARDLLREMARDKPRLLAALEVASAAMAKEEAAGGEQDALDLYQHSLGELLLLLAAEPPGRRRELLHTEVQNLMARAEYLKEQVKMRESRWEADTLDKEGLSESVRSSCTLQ

[11] = molecular target: Calcium/calmodulin-dependent protein kinase type 1D (Homo sapiens) (UniProt Q8IU85)
[12] = molecular target: Protein kinase C delta type (Homo sapiens) (UniProt Q05655)
[13] = molecular target: Dual specificity mitogen-activated protein kinase kinase 1 (Homo sapiens) (UniProt Q02750)
[14] = molecular target: Mitogen-activated protein kinase kinase kinase 11 (Homo sapiens) (UniProt Q16584)
[15] = molecular target: Serine/threonine-protein kinase 32C (Homo sapiens) (UniProt Q86UX6)
[16] = molecular target: NT-3 growth factor receptor (Homo sapiens) (UniProt Q16288)

Measured: % residual kinase activity

Protein kinase C delta type (Homo sapiens), sequence (Q05655 whole entry, looked up): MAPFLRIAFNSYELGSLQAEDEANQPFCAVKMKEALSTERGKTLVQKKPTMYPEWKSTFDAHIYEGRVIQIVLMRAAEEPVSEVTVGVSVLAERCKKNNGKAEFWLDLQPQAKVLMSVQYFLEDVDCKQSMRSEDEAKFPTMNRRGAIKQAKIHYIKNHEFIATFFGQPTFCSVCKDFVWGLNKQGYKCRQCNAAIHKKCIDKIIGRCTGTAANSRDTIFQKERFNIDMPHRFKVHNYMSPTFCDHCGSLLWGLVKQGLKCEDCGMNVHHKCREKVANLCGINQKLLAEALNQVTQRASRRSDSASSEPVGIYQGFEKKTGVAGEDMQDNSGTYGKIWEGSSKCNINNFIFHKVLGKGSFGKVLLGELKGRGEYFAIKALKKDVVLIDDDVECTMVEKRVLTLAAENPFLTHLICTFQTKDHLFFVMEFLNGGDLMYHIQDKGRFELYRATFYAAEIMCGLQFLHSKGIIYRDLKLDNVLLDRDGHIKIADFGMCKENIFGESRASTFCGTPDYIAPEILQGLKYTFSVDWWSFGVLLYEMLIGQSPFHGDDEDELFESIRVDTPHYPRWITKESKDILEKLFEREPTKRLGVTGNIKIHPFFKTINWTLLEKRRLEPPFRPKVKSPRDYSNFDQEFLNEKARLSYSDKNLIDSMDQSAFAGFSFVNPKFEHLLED
mTOR/FKBP12A/FKBP12B (Homo sapiens), sequence (P62942 2-108 limits assumed, other chains not shown): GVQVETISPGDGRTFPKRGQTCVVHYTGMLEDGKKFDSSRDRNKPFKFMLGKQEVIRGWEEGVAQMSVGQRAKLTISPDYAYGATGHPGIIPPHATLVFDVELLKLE
mTOR/FKBP12A/FKBP12B (Homo sapiens), sequence (P68106 whole entry partner, other chains not shown): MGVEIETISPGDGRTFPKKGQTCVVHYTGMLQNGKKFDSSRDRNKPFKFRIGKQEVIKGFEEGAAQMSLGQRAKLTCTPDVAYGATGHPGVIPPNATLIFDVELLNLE
Dual specificity mitogen-activated protein kinase kinase 1 (Homo sapiens), sequence (Q02750 whole entry): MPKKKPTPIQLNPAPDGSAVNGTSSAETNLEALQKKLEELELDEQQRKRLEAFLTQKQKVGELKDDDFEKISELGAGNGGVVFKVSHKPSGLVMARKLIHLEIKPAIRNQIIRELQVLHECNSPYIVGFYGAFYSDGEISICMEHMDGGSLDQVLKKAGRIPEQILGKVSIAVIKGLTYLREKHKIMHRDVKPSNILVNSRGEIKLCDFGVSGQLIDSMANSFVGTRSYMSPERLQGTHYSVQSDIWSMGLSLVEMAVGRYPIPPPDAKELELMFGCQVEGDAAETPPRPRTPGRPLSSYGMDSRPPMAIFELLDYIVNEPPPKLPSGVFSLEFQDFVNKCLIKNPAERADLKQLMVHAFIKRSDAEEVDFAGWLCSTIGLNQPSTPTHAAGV
Calcium/calmodulin-dependent protein kinase type 1D (Homo sapiens), sequence (Q8IU85 whole entry, looked up): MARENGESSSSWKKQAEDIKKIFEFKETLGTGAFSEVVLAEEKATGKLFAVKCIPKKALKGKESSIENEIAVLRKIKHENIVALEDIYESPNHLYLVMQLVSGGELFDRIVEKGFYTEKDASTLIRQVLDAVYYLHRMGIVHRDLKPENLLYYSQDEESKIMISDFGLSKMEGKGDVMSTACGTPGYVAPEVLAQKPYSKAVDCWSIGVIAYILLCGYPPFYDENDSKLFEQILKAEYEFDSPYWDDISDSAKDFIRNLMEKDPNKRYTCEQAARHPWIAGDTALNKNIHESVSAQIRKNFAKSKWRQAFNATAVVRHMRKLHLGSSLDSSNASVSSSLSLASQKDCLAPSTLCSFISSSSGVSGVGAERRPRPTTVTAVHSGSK
Eukaryotic translation initiation factor 2-alpha kinase 1 (Homo sapiens), sequence (Q9BQI3 whole entry): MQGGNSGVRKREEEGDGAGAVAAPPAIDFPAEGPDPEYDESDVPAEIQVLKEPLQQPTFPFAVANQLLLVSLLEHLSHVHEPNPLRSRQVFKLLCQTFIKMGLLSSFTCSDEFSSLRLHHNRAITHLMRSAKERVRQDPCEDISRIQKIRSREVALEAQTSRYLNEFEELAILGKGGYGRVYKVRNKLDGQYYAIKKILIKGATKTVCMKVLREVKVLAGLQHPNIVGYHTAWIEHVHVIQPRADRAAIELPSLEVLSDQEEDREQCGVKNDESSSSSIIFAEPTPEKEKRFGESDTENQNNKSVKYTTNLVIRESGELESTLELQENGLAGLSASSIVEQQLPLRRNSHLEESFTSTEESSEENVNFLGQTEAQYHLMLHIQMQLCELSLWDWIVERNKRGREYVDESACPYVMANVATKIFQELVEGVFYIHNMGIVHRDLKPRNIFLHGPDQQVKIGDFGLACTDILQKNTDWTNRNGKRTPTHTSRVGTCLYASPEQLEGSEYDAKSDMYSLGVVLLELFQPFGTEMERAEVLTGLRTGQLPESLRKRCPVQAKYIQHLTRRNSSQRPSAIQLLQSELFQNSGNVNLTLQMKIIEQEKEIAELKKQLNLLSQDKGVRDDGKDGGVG
Fibroblast growth factor receptor 1 (Homo sapiens), sequence (P11362 22-822 limits assumed): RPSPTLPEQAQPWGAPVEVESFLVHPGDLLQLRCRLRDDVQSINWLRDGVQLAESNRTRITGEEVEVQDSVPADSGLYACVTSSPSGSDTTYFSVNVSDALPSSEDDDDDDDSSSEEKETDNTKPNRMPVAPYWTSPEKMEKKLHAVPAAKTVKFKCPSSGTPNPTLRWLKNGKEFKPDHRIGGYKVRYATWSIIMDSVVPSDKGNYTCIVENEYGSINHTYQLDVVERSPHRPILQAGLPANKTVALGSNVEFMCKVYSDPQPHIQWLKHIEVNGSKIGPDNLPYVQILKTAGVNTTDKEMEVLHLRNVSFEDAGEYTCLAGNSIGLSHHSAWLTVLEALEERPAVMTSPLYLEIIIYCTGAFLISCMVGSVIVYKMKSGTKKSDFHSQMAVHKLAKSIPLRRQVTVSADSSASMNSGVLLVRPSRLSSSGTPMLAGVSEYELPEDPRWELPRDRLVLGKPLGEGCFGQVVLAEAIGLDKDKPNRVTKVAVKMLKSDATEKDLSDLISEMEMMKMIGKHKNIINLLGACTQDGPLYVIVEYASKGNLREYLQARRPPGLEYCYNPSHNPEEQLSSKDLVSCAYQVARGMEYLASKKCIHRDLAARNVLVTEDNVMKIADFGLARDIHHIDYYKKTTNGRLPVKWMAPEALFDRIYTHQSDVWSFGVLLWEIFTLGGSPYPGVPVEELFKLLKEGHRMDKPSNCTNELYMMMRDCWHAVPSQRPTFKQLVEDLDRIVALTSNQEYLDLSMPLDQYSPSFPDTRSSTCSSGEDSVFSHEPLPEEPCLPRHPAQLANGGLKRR
Macrophage-stimulating protein receptor (Homo sapiens), sequence (Q04912 25-304 limits assumed): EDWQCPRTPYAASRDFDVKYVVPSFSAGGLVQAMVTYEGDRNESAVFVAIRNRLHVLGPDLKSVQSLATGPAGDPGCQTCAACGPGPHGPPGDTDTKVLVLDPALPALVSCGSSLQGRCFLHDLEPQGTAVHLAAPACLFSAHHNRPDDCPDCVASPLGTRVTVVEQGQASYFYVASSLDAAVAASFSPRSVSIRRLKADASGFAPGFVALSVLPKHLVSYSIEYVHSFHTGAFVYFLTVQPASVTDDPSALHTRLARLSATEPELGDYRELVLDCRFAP
Macrophage-stimulating protein receptor (Homo sapiens), sequence (Q04912 310-1400 limits assumed): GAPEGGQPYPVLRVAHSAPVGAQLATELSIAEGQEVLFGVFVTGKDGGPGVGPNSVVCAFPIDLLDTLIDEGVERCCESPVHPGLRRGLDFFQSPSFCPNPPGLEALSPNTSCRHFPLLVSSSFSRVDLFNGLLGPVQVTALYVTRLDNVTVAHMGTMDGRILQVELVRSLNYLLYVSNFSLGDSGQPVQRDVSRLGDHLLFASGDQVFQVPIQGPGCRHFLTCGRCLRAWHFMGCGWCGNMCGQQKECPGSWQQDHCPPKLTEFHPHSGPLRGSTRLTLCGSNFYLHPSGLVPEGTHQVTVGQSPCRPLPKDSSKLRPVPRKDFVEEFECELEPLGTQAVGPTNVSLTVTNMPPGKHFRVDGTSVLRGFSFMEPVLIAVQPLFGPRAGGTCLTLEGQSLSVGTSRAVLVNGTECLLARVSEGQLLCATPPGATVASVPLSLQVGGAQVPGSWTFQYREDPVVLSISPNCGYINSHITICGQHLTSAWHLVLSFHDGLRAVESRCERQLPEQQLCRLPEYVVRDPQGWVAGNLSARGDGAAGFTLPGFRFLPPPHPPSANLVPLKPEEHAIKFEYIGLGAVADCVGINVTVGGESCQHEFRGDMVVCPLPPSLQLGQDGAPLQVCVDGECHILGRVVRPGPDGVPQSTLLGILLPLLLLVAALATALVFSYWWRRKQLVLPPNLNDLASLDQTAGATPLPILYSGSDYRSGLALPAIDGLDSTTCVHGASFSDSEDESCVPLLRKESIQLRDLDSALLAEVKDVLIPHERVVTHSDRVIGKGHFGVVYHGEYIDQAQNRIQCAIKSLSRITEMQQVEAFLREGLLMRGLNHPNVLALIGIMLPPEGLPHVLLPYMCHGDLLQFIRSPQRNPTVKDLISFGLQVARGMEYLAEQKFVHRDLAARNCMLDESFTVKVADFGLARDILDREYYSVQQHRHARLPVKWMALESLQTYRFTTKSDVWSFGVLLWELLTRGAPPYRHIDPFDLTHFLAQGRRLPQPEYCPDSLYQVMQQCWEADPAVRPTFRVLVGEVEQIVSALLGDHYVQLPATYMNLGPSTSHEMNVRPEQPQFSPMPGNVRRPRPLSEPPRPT
Serine/threonine-protein kinase 32C (Homo sapiens), sequence (Q86UX6 whole entry): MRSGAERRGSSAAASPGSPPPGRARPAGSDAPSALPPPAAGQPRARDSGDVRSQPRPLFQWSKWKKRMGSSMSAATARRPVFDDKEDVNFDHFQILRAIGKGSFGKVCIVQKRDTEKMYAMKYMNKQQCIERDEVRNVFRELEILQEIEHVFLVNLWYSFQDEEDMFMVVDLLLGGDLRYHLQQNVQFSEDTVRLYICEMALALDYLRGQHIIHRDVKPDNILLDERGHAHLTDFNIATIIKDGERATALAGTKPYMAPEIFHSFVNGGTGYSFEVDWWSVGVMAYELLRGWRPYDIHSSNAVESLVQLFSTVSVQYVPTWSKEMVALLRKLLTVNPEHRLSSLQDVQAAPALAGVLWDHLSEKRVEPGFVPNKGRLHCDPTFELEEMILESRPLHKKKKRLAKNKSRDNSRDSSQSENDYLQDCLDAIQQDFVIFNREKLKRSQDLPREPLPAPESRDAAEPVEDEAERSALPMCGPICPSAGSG

CN1CCN(c2cnc3c(C4CCN(C(=O)c5ccc(OC(F)(F)F)cc5N)CC4)ncnc3c2)CC1 [BAY-885]
inactive: [1] 104% | [2] 100% | [3] 118% | [4] 101% | [5] 100% | [6] 113% | [7] 99% | [8] 111% | [9] 101% | [10] 98% | [11] 94% | [12] 115% | [13] 115% | [14] 112% | [15] 103% | [16] 123%
